Experimental data published in ChEMBL document CHEMBL1141744, “Antibacterial steroidal alkaloids from Sarcococca saligna” (1998).

Key:
[1] = tested on: Klebsiella pneumoniae; assay: Antibacterial activity against Klebsiella pneumoniae at 200 ug/100uL after 24 hrs by agar well diffusion method; format: functional
[2] = tested on: Proteus mirabilis; assay: Antibacterial activity against Proteus mirabilis after at 200 ug/100uL 24 hrs by agar well diffusion method; format: functional
[3] = tested on: Pseudomonas aeruginosa; assay: Antibacterial activity against Pseudomonas aeruginosa at 200 ug/100uL after 24 hrs by agar well diffusion method; format: functional
[4] = tested on: Staphylococcus aureus; assay: Antibacterial activity against Staphylococcus aureus at 200 ug/100uL after 24 hrs by agar well diffusion method; format: functional
[5] = tested on: Streptococcus pyogenes; assay: Antibacterial activity against Streptococcus pyogenes at 200 ug/100uL after 24 hrs by agar well diffusion method; format: functional
[6] = tested on: Salmonella typhi; assay: Antibacterial activity against Salmonella typhi at 200 ug/100uL after 24 hrs by agar well diffusion method; format: functional, Salmonella enterica subsp. enterica serovar Typhi
[7] = tested on: Shigella boydii; assay: Antibacterial activity against Shigella boydii at 200 ug/100uL after 24 hrs by agar well diffusion method; format: functional

SMILES	inhibition zone (IZ) [1] [mm]	inhibition zone (IZ) [2] [mm]	inhibition zone (IZ) [3] [mm]	inhibition zone (IZ) [4] [mm]	inhibition zone (IZ) [5] [mm]	inhibition zone (IZ) [6] [mm]	inhibition zone (IZ) [7] [mm]
C[C@@H]([C@H]1CC[C@H]2[C@@H]3CC[C@H]4C[C@@H](N(C)C(=O)c5ccccc5)CC[C@]4(C)[C@H]3CC[C@]12C)N(C)C	8	8	6	12	6	6	6
CC1(C)S[C@@H]2[C@H](NC(=O)[C@H](N)c3ccc(O)cc3)C(=O)N2[C@H]1C(=O)O [AMOXICILLIN]	17	16	15	16	16	12	17
C[C@@H]([C@H]1CC[C@H]2[C@@H]3CC[C@H]4C[C@@H](N(C)C(=O)CCc5ccccc5)CC[C@]4(C)[C@H]3CC[C@]12C)N(C)C	10.5		7.5	11			
C[C@@H]([C@H]1CC[C@H]2[C@@H]3CC[C@H]4C[C@@H](N(C)CCCc5ccccc5)CC[C@]4(C)[C@H]3CC[C@]12C)N(C)C			5.5				
C[C@@H]([C@H]1CC[C@H]2[C@@H]3CC[C@H]4C[C@@H](N(C)Cc5ccccc5)CC[C@]4(C)[C@H]3CC[C@]12C)N(C)C	6		5.5	9			
CC1(C)S[C@@H]2[C@H](NC(=O)[C@H](N)c3ccccc3)C(=O)N2[C@H]1C(=O)O [AMPICILLIN]	17	17	15	18	17	12	17
C[C@@H]([C@H]1CC[C@H]2[C@@H]3CC[C@H]4C[C@@H](NC(=O)c5ccccc5)CC[C@]4(C)[C@H]3CC[C@]12C)N(C)C [EPIPACHYSAMINE D]				7			
C[C@@H]([C@H]1CC[C@H]2[C@@H]3CC[C@H]4C[C@@H](N(C)C(=O)/C=C/c5ccccc5)CC[C@]4(C)[C@H]3CC[C@]12C)N(C)C [SALIGCINNAMIDE]	9	7	6	12	8	6	6
